# Data published in patent US12594263B2, “CBL inhibitors and compositions for expansion of immune cells” (Nurix Therapeutics, Inc., priority 2019, dated 2026).
# “Also recorded” adds a separate entry of the source.
# Key:
# [1] = system: human tumor-infiltrating lymphocytes (TIL); assay: Rapid Expansion Protocol (REP) of TIL; assay type: cell-based; conditions: alone or with IL-2 6000 IU/mL
# Procedure: PBMC, OKT3 antibody (30 ng/mL), complete medium (“CM”), AIM V media (GIBCO/BRL), and TIL effector cells were combined, mixed, and aliquoted to a 75 cm^2 tissue culture flask. Flasks were incubated upright at 37° C. in 5% CO2. […] About 14 days after initiation of the REP, cells were harvested and cryopreserved for future experimental analysis.
# OT-1 CD8+ T cells = assay: Ex vivo expansion and immunophenotyping of OT-1 CD8+ T cells; assay type: cell-based, mouse; conditions: 1 μM, three days, plate-bound anti-CD3
# Text: Antigen specific T cells from transgenic mice can be leveraged as a model for CAR T or TIL expansion ex vivo with a Cbl inhibitor. The OT-1 transgenic animals, that are commercially available, have CD8 T cells that recognize OVA peptide aa 257-264 when presented by the MHC I molecule. CD8+ T cells from OT-1 mice were isolated from a single cell suspension of splenocytes by negative selection (StemCell Technologies cat #19853 EasySep™ Mouse CD8+ T Cell Isolation Kit). Cell were then resuspended in complete media (RPMI1640, 10% heat inactivated FBS, 1× Penicillin/Streptomycin, 1× Glutamine and β-mercaptoethanol) at concentration of 0.5×10^6 per mL. Six well tissue culture plates (Falcon) were coated with 2 ug/mL of anti-mouse CD3 (Bio Xcell Cat #BE0001-1-R100 mg InVivoMAb anti-mouse CD3ε Clone: 145-2C11) for >3 hrs at 37° C. and washed with PBS (MediaTech) prior to cell addition. […] Following three days of OT-1 T cell activation and expansion the cells were collected, counted and immunophenotyped by flow cytometry by measuring expression of differentiation and additional T cell makers including: CD3, CD4, CD8, CD45, CD25, Granzyme B, CD107a, CD127, PD-1, TIM3, LAG3, KLRG-1, ICOS, TCF1, Ki67, T-bet and FOXP3.
# E.G7-OVA tumors = assay: Adoptive transfer of ex vivo expanded OT-1 cells into E.G7-OVA tumor-bearing mice: tumor volume and survival; assay type: in vivo, mouse
# Procedure: (§1) Dead cells were removed (Miltenyi Biotec Cat #130-090-101) prior to transfer in vivo to monitor their trafficking and function in an EG.7 lymphoma model, which expresses the OVA antigen. Approximately five million cells per mouse were transferred to mice having an average tumor burden of about 70 mm^3. Following in vivo transfer of the OT-1 cells, antitumor response was monitored over time and the quality and quantity of immune response were assessed at various time points.
# (§2) The expanded OT-1 cells were characterized by FACS analysis and transferred into E.G7-OVA mice, which bear ovalbumin (OVA) expressing tumors. Following in vivo transfer of expanded OT-1 cells, antitumor response was monitored over time and the quality and quantity of immune response was assessed at various time points. Analysis included FACS analysis on blood, tumor, and spleen samples. Analysis also included re-stimulation of splenocytes with OVA Class I peptide to evaluate the multifunctionality of the antigen-specific effector T cells.
# (§3) On Day 0, E.G7-OVA cells were implanted into each mouse. On Day 5, approximately 5×10^6 in vitro expanded OT-1 cells were injected into the tail of each mouse. On Day 9, blood was analyzed by FACS. On Day 14, blood, tumor and spleen samples were analyzed by FACS. On Day 27, blood was analyzed by FACS. Tumor volume was measured approximately every five days through about 50 days post implant.
# OT-1 cells = assay: In vivo frequency, persistence and exhaustion markers of transferred OT-1 cells (blood, spleen, tumor, FACS); set-up: species or system mouse
# Procedure: as §1, §2, §3
# OT-1 cells were expanded according to the previous examples and administered to E.G7-OVA mice, which bear ovalbumin (OVA) expressing tumors. The cells were evaluated for their in vivo properties.
# Expanded OT-1 cells were assessed in blood 4 days and 22 days after transfer.
# Expanded OT-1 cells were assessed in tumors 4 days after transfer.
# E.G7-OVA tumor cells = assay: Tumor re-challenge of long term survivors 149 days after OT-1 transfer; assay type: in vivo, mouse
# Text: To determine whether OT-1 cells are capable of long-term tumor protection, the long term survivors of the above experiment (FIG. 12) were re-challenged with a lethal dose of E.G7-OVA tumor cells 149 days after the initial adoptive transfer of the in vitro expanded OT-1 cells. Re-challenge induced OT-1 cell expansion at the site engrafted with E.G7-OVA tumor cells expressing ovalbumin antigen, thereby effectively controlling tumor growth (FIG. 21).
# [2] = system: TIL from ovarian, colon and breast cancer tissues; assay: Phenotype of TIL expanded 14 days in GREX 10 flasks; assay type: cell-based, human; conditions: GREX 10 format, versus IL-2 alone (FIG. 26)
# Procedure: TIL directly derived from fresh ovarian, colon and breast cancer tissues (fresh, n=7) obtained after 14 days' ex vivo culture of cancer tissue fragments were analyzed by flow cytometry.
# TIL directly derived from fresh ovarian, colon and breast cancer tissues (fresh, n=7) obtained after 14 days' ex vivo culture of cancer tissue fragments were analyzed by flow cytometry. FIG. 26 provides FACS data showing percentages of central memory (CD45RO+CD8+) and effector memory (CD45RO+CD8-) phenotype among CD8+CD45RO+, respectively. FACS results were expressed as the mean SEM.
# breast TIL = assay: CDR3 diversity of expanded breast TIL (iRepertoire sequencing); assay type: cell-based, human; conditions: 14 days in GREX 10 (FIGS. 32A-C)
# Procedure: TIL were cultured for 14 days in GREX™10. […] The raw data were analyzed by iRepertoire using IRmap programs with a modified Smith-Waterman algorithm. Using CDR3algebra software, the calculation of shared CDR3s across samples with the indicated treatment was assessed. […] All CDR3 frequencies were scaled to 10 million reads to account for differences in read depth among samples. Data was normalized so that each uCDR3-VDJ combination was treated as a quantity of 1 regardless of read count, and then analyzed for V usage and J usage.
# [3] = second study, anti-CD3 stimulated OT-1 cells
compound,measurement,setting,value
C[C@@H]1CN(Cc2cc3c(c(C(F)(F)F)c2)CN(c2cccc(C4(Cc5nncn5C)COC4)c2)C3=O)CCC1(F)F [Compound 103],Percentage of total cell number relative to IL-2 alone on day 42 (Pre-REP and REP),"[1]; TIL1 (ovary), 0.1 μM Cbl-i",40%
same,Percentage of total cell number relative to IL-2 alone on day 42 (Pre-REP and REP),"[1]; TIL1 (ovary), 1.0 μM Cbl-i",42%
same,Percentage of total cell number relative to IL-2 alone on day 42 (Pre-REP and REP),"[1]; TIL1 (ovary), 10 μM Cbl-i",32%
same,Percentage of total cell number relative to IL-2 alone on day 42 (Pre-REP and REP),"[1]; TIL3 (ovary), 1.0 μM Cbl-i",150%
same,Percentage of total cell number relative to IL-2 alone on day 42 (Pre-REP and REP),"[1]; TIL4 (colon), 0.1 μM Cbl-i",80%
same,Percentage of total cell number relative to IL-2 alone on day 42 (Pre-REP and REP),"[1]; TIL4 (colon), 1.0 μM Cbl-i",80%
same,Percentage of total cell number relative to IL-2 alone on day 42 (Pre-REP and REP),"[1]; TIL6 (ovary), 0.1 μM Cbl-i",51%
same,Percentage of total cell number relative to IL-2 alone on day 42 (Pre-REP and REP),"[1]; TIL6 (ovary), 1.0 μM Cbl-i",63%
same,Percentage of total cell number relative to IL-2 alone on day 42 (Pre-REP and REP),"[1]; TIL6 (ovary), 10 μM Cbl-i",49%
same,Effector function of expanded OT-1 cells (granzyme and T-bet),OT-1 CD8+ T cells,trend of increased effector function
same,Anti-tumor phenotype of transferred T cells,"E.G7-OVA tumors; 3-day ex vivo exposure, alone or in combination with IL-2",conferred a lasting anti-tumor phenotype for over a month
same,"Potency of expanded CD8+ OT-1 cells (tumor volume, FIGS. 11A and 11B)","E.G7-OVA tumors; expansion at 1 μM, IL-2 300 IU, E.G7-OVA mice",at least as potent as CD8+OT-1 cells expanded with IL-2
same,Rejection of established tumors by expanded OT-1 cells (FIG. 9),E.G7-OVA tumors; mice subcutaneously implanted with E.G7-OVA cells,potent effectors capable of rejecting established tumors
same,Long-term survival (FIG. 12B),E.G7-OVA tumors; [3],improved long-term survival
same,"Potency of expanded OT-1 cells, inhibition of tumor growth (FIG. 12A)",E.G7-OVA tumors; [3],increased potency compared to IL-2 expanded cells; also recorded: increased potency compared to TL-2 expanded cells
same,"Cells expressing stem markers TCF1+, PD-1+ and TIM-3+",OT-1 cells; OT-1 cells after transfer,greater percentage of cells that expressed stem markers
same,Frequency of OT-1 cells in total CD8+ T cells and CD45+ cells and persistence,"OT-1 cells; blood, 4 or 9 days after transfer (FIG. 10)",higher frequency in total CD8+ T cells and CD45+ cells and in vivo persistence in the blood
same,Frequency of OT-1 cells in total CD45+ cells and persistence,"OT-1 cells; blood, 4 days and 22 days after transfer (FIGS. 13A, 13B)",higher frequency in total CD45+ cells and persisted longer than cells expanded with IL-2 alone
same,"Expression of exhaustion markers PD1, TIM3, LAG3","OT-1 cells; tumor, versus IL-2 alone (FIGS. 14B, 14C)",lower level of expression of exhaustion markers
same,"Tumor infiltration, frequency of OT-1 cells in total CD45+ cells","OT-1 cells; tumors, 4 days after transfer (FIG. 14A)",increased ability to infiltrate the tumor
same,Protection from tumor re-challenge (FIG. 21),E.G7-OVA tumor cells; OT-1 cells expanded in vitro,potent memory cells capable of protecting mice from tumor re-challenge
same,Number of OT-1 cells in blood 149 days after initial adoptive transfer,E.G7-OVA tumor cells; before re-challenge (FIG. 22A),higher number in the blood
same,"Recall response, number of OT-1 cells per ml of blood","E.G7-OVA tumor cells; day 5 after tumor re-challenge, versus IL-2 alone (FIG. 22B)",significantly more rapid recall response
same,CD8+ central memory T cells,[2],increases CD8+ central memory T cells
same,Unique CDR3s,breast TIL,increased
